The source of these data is US10220040B2, “Compounds, compositions and methods useful for cholesterol mobilization” (Cerenis Therapeutics Holding SA, priority 2010, dated 2019).

One test concerns apoE−/− mice. The test is described as follows: ApoE−/− high-cholesterol diet model (aorta plaque progression). The class given is in vivo. The following applies: 8 weeks diet then 4 weeks 100 μg/kg/day. How it is done: FIG. 19A-L: Effect of P2Y13 agonist on atherosclerotic plaque progression in aortas of apoE^−/− mice. ApoE^−/− mice (n=20) were placed on a Western diet for 8 weeks followed by a 4 weeks oral gavage of vehicle or 100 μg/kg of Compound IIa. Aortas (n=10) were lipid extracted in 2:1 chloroform/methanol. FIG. 19A: the concentrations in total cholesterol were measured by HPLC and GC/MS and compared to parallel apoE−/− mice (n=10) on normal Chow diet as a baseline. FIG. 19B: quantification of the intima/media ratio (n=10). FIG. 19C: F4/80 antibody staining quantification (n=10). FIG. 19D: Oil Red O positive staining quantification (n=10). FIG. 19E: quantification of Sirius Red staining (n=10). FIG. 19F: anti-VCAM1 antibody staining quantification (n=10). The quantifications were expressed as the percentage of staining as compared to the sum of the intima and media area. *p<0.05. FIG. 19G to FIG. 19L: typical example of staining of aorta slides used for the quantifications. FIG. 19G and FIG. 19J: hematoxylin eosin staining of transversal sections of apoE^−/− mice aortas. FIG. 19H and FIG. 19K: Oil Red O staining of transversal sections of apoE^−/− mice aortas. FIG. 19I and FIG. 19L: VCAM1 antibody staining of transversal sections of apoE^−/− mice aortas.
Mice were placed for two month on Western diet (0.2% cholesterol, 21% butter milk) then dosed with Compound IIa once a day at 100 μg/kg (0.5% CMC, 0.2% Tween80) for 4 more weeks. The mice were sacrificed and the aortas were collected for biochemical and immunohistological characterizations. One set of aorta (n=10) was detached at the base of the heart and placed in a glass tube with 3 ml of chloroform-methanol 2:1 (v/v), and stigmasterol as the internal standard. Then analyzed as described above. Another set of aortas (n=10) were first extensively washed with PBS, then with 4% paraformaldehyde (500 μl) and finally with tissue tek OCT (500 μl). Next the aorta was embedded in OCT and frozen at −20° C. Three step frozen sections of 10 μm separated one from the other were processed and stained with Oil red O (ORO), Sirius red and hematoxylin/eosin. Macrophages were detected using F4/80 primary rat monoclonal antibody (Abcam) and VCAM was detected using rat anti mouse CD106 (AbDSerotec).
The prevention of progression of the plaque in aorta was further evaluated in the cholesterol diet-fed apoE−/− mice (FIG. 19). […] The collagen content of the wall was improved (FIG. 19E).

The next test deals with HepG2 cells. As to the kind of experiment: In vitro HDL internalization in human hepatocytes (HepG2) cells. The class given is cell-based. To be noted: compound 1 μM; 3H-labeled HDL 75 μg/ml, 10 min at 37° C. How it is done: FIG. 3: Single-dose effect of the selected molecules on HDL internalization by HepG2 cells. Cells were incubated for 10 min at 37° C. with 75 μg/ml ^3H cholesterol Cholesteryl Oleate [Cholesteryl-1,2-^3H(N)] HDL, Reference Compound (100 nM) and illustrative compounds of the invention (1 μM). Data are expressed as the percentage of internalized radioactivity with respect to the control value (set as […]). *p<0.005, **p<0.0001.
The effect of illustrative compounds of the invention on HDL internalization was measured by an in vitro assay on HepG2 cells (FIG. 3). ^3H cholesterol Cholesteryl Oleate [Cholesteryl-1,2-^3H(N)] labeled HDL] (available from PerkinElmer http://www.perkinelmer.com/Catalog/Product/ID/NET746L001MC) was loaded on HepG2 cells in presence of illustrative compounds of the invention (final concentration 1 μM). […] It was determined that Compounds XIa, IIc, IIa and Ih (R-isomer) have a strong impact on HDL uptake by HepG2 cells; Compounds IIb, VIIa and VIIIa have a modest impact on HDL uptake by HepG2 cells.
^3H cholesterol Cholesteryl Oleate [Cholesteryl-1,2-^3H(N)] (Perkin Elmer) solution (250 μL) was dried and resuspended in acetone (250 μL). The solution was mixed with Lipoprotein delipidated serum (20 mL at 40 mg/mL) and DTNB (0.4 μM final concentration). HDL (7 mg) was added and incubated overnight at 4° C. on gentle rotation. The HDL was purified on KBr gradient as previously described.
Hepatocytes were plated at 300,000 cells/well in 6×-well plates. Two days later, the cells were washed once with DMEM and incubated for 1 hour in DMEM at 37° C. 75 μg of radio-labeled HDL (6500 dpm/μg) were added to the medium and incubated for 10 minutes at 37° C. The cells were washed once with DMEM (2 mL) and incubated for 1.5 hours in DMEM at 4° C., whereupon dissociation occurred. Then the cells were washed once more with cold DMEM (2 mL) and the incorporated cholesterol ether was retrieved from HepG2 cells by the addition of hexane:isopropanol (3:2) solution (1 mL).

On to `CN(C)c1ncc(CN2CCC(c3cc(O)nc(N4CCOCC4)n3)CC2)cn1` [Compound IIa, 6-[1-(2-Dimethylaminopyrimidin-5-ylmethyl)-piperidin-4-yl]-2-morpholin-4-yl-pyrimidin-4-ol], for which, in the test with apoE−/− mice, the “VCAM1 expression (antibody CD106)” value is on record as “significant decreases”, the “cholesterol content of aorta” value is listed as “significant decreases”, the “collagen content of the wall” value is reported as “improved” and the “lipid staining of aorta” value is “decrease”. In the test on apoE−/− mice, the “macrophage content (F4/80 antibody) of the aortic wall and the plaque” value is “decreased”; the “plaque area in aorta” value is listed as “significant decreases”. Also, in the test with HepG2 cells, the “impact on HDL uptake by HepG2 cells” value is reported as “strong impact”.
